# Experimental data as given in the supplement of paper PMC10307832.
# Tests used:
# Experiment in all cases: relative viability (nuclei count vs DMSO), 5 days (fraction); higher = more cells survive
# NCI-H661 = tested on: NCI-H661
# How it was run: (§1)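 Relative viability is defined as nuclei in treated wells over nuclei in vehicle wells. Duplicate plates were run and medians reported. Lung cancer cell lines in 1536-well plates were dosed by pin tool one day after seeding, with one drug or with a fixed anchor-drug dose plus five library-drug doses (not always all listed) in √10 steps, and nuclei were counted after 5 days.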
# NCI-H650 = tested on: NCI-H650
# How it was run: as §1
# BEN = tested on: BEN
# How it was run: as §1
# NCI-H1650 = tested on: NCI-H1650
# How it was run: as §1
# A-427 = tested on: A-427
# How it was run: as §1
# LC-2-ad = tested on: LC-2-ad
# How it was run: as §1
# 201T = tested on: 201T
# How it was run: as §1
# NCI-H1915 = tested on: NCI-H1915
# How it was run: as §1
# ABC-1 = tested on: ABC-1
# How it was run: as §1
# H3255 = tested on: H3255
# How it was run: as §1
# NCI-H460 = tested on: NCI-H460
# How it was run: as §1
# CAL-12T = tested on: CAL-12T
# How it was run: as §1
# NCI-H520 = tested on: NCI-H520
# How it was run: as §1
# PC-3 [JPC-3] = tested on: PC-3 [JPC-3]
# How it was run: as §1
# NCI-H1651 = tested on: NCI-H1651
# How it was run: as §1
# LCLC-97TM1 = tested on: LCLC-97TM1
# How it was run: as §1
# NCI-H441 = tested on: NCI-H441
# How it was run: as §1
# NCI-H727 = tested on: NCI-H727
# How it was run: as §1
# NCI-H1944 = tested on: NCI-H1944
# How it was run: as §1
# NCI-H2023 = tested on: NCI-H2023
# How it was run: as §1
# NCI-H2087 = tested on: NCI-H2087
# How it was run: as §1
smiles,measurement,setting,value
Nc1ccn([C@@H]2O[C@H](CO)[C@@H](O)[C@@H]2O)c(=O)n1 [Cytarabine] + CC(=O)c1c(C)c2cnc(Nc3ccc(N4CCNCC4)cn3)nc2n(C2CCCC2)c1=O [Palbociclib] (partner 0.5 µM),relative viability,NCI-H661; first compound 0.005 µM,0.429
same,relative viability,NCI-H661; first compound 0.01581 µM,0.393
same,relative viability,NCI-H661; first compound 0.05 µM,0.377
same,relative viability,NCI-H661; first compound 0.1581 µM,0.353
same,relative viability,NCI-H661; first compound 0.5 µM,0.251
same,relative viability,NCI-H650; first compound 0.005 µM,0.238
same,relative viability,NCI-H650; first compound 0.01581 µM,0.227
same,relative viability,NCI-H650; first compound 0.05 µM,0.159
same,relative viability,NCI-H650; first compound 0.1581 µM,0.157
same,relative viability,NCI-H650; first compound 0.5 µM,0.175
same,relative viability,BEN; first compound 0.005 µM,0.481
same,relative viability,BEN; first compound 0.01581 µM,0.431
same,relative viability,BEN; first compound 0.05 µM,0.458
same,relative viability,BEN; first compound 0.1581 µM,0.377
same,relative viability,BEN; first compound 0.5 µM,0.286
same,relative viability,NCI-H1650; first compound 0.005 µM,0.317
same,relative viability,NCI-H1650; first compound 0.01581 µM,0.319
same,relative viability,NCI-H1650; first compound 0.05 µM,0.318
same,relative viability,NCI-H1650; first compound 0.1581 µM,0.163
same,relative viability,NCI-H1650; first compound 0.5 µM,0.186
same,relative viability,A-427; first compound 0.005 µM,0.437
same,relative viability,A-427; first compound 0.01581 µM,0.474
same,relative viability,A-427; first compound 0.05 µM,0.363
same,relative viability,A-427; first compound 0.1581 µM,0.281
same,relative viability,A-427; first compound 0.5 µM,0.273
same,relative viability,LC-2-ad; first compound 0.005 µM,0.412
same,relative viability,LC-2-ad; first compound 0.01581 µM,0.417
same,relative viability,LC-2-ad; first compound 0.05 µM,0.505
same,relative viability,LC-2-ad; first compound 0.1581 µM,0.379
same,relative viability,LC-2-ad; first compound 0.5 µM,0.412
same,relative viability,201T; first compound 0.005 µM,0.369
same,relative viability,201T; first compound 0.01581 µM,0.335
same,relative viability,201T; first compound 0.05 µM,0.356
same,relative viability,201T; first compound 0.1581 µM,0.271
same,relative viability,201T; first compound 0.5 µM,0.31
same,relative viability,NCI-H1915; first compound 0.005 µM,0.532
same,relative viability,NCI-H1915; first compound 0.01581 µM,0.47
same,relative viability,NCI-H1915; first compound 0.05 µM,0.37
same,relative viability,NCI-H1915; first compound 0.1581 µM,0.265
same,relative viability,NCI-H1915; first compound 0.5 µM,0.2
same,relative viability,ABC-1; first compound 0.005 µM,0.49
same,relative viability,ABC-1; first compound 0.01581 µM,0.736
same,relative viability,ABC-1; first compound 0.05 µM,0.625
same,relative viability,ABC-1; first compound 0.1581 µM,0.468
same,relative viability,ABC-1; first compound 0.5 µM,0.432
same,relative viability,H3255; first compound 0.005 µM,0.33
same,relative viability,H3255; first compound 0.01581 µM,0.32
same,relative viability,H3255; first compound 0.05 µM,0.281
same,relative viability,H3255; first compound 0.1581 µM,0.265
same,relative viability,H3255; first compound 0.5 µM,0.261
same,relative viability,NCI-H460; first compound 0.005 µM,0.156
same,relative viability,NCI-H460; first compound 0.01581 µM,0.0617
same,relative viability,NCI-H460; first compound 0.05 µM,0.0499
same,relative viability,NCI-H460; first compound 0.1581 µM,0.0475
same,relative viability,NCI-H460; first compound 0.5 µM,0.044
same,relative viability,CAL-12T; first compound 0.005 µM,0.341
same,relative viability,CAL-12T; first compound 0.01581 µM,0.389
same,relative viability,CAL-12T; first compound 0.05 µM,0.421
same,relative viability,CAL-12T; first compound 0.1581 µM,0.193
same,relative viability,CAL-12T; first compound 0.5 µM,0.146
same,relative viability,NCI-H520; first compound 0.005 µM,0.234
same,relative viability,NCI-H520; first compound 0.01581 µM,0.223
same,relative viability,NCI-H520; first compound 0.05 µM,0.199
same,relative viability,NCI-H520; first compound 0.1581 µM,0.177
same,relative viability,NCI-H520; first compound 0.5 µM,0.201
same,relative viability,PC-3 [JPC-3]; first compound 0.005 µM,0.546
same,relative viability,PC-3 [JPC-3]; first compound 0.01581 µM,0.479
same,relative viability,PC-3 [JPC-3]; first compound 0.05 µM,0.489
same,relative viability,PC-3 [JPC-3]; first compound 0.1581 µM,0.459
same,relative viability,PC-3 [JPC-3]; first compound 0.5 µM,0.463
same,relative viability,NCI-H1651; first compound 0.005 µM,0.508
same,relative viability,NCI-H1651; first compound 0.01581 µM,0.514
same,relative viability,NCI-H1651; first compound 0.05 µM,0.551
same,relative viability,NCI-H1651; first compound 0.1581 µM,0.374
same,relative viability,NCI-H1651; first compound 0.5 µM,0.277
same,relative viability,LCLC-97TM1; first compound 0.005 µM,0.186
same,relative viability,LCLC-97TM1; first compound 0.01581 µM,0.135
same,relative viability,LCLC-97TM1; first compound 0.05 µM,0.198
same,relative viability,LCLC-97TM1; first compound 0.1581 µM,0.124
same,relative viability,LCLC-97TM1; first compound 0.5 µM,0.0884
same,relative viability,NCI-H441; first compound 0.005 µM,0.198
same,relative viability,NCI-H441; first compound 0.01581 µM,0.197
same,relative viability,NCI-H441; first compound 0.05 µM,0.168
same,relative viability,NCI-H441; first compound 0.1581 µM,0.139
same,relative viability,NCI-H441; first compound 0.5 µM,0.17
same,relative viability,NCI-H727; first compound 0.005 µM,0.613
same,relative viability,NCI-H727; first compound 0.01581 µM,0.556
same,relative viability,NCI-H727; first compound 0.05 µM,0.599
same,relative viability,NCI-H727; first compound 0.1581 µM,0.554
same,relative viability,NCI-H727; first compound 0.5 µM,0.505
same,relative viability,NCI-H1944; first compound 0.005 µM,0.283
same,relative viability,NCI-H1944; first compound 0.01581 µM,0.248
same,relative viability,NCI-H1944; first compound 0.05 µM,0.207
same,relative viability,NCI-H1944; first compound 0.1581 µM,0.205
same,relative viability,NCI-H1944; first compound 0.5 µM,0.16
same,relative viability,NCI-H2023; first compound 0.005 µM,0.378
same,relative viability,NCI-H2023; first compound 0.01581 µM,0.221
same,relative viability,NCI-H2023; first compound 0.05 µM,0.129
same,relative viability,NCI-H2023; first compound 0.1581 µM,0.0971
same,relative viability,NCI-H2023; first compound 0.5 µM,0.088
same,relative viability,NCI-H2087; first compound 0.005 µM,0.23
same,relative viability,NCI-H2087; first compound 0.01581 µM,0.215
same,relative viability,NCI-H2087; first compound 0.05 µM,0.231
same,relative viability,NCI-H2087; first compound 0.1581 µM,0.167
same,relative viability,NCI-H2087; first compound 0.5 µM,0.205
